Source: US20100099564A1, “HERBICIDE COMBINATION COMPRISING DIMETHOXYTRIAZINYL-SUBSTITUTED DIFLUOROMETHANESULFONYLANILIDES” (BAYER CROPSCIENCE AG, priority 2008, published 2010)

Columns and labels:
Assay type in all cases: in vivo
[1] = system: Pharbitis purpurea (PHBPU); assay: Post-emergence action, greenhouse pot test, visual scoring: PHBPU
Description: (§1) Seeds or rhizome pieces of mono- and dicotyledonous harmful and useful plants were placed in peat pots (diameter 4 cm) filled with sandy loam and then covered with soil. The pots were kept in a greenhouse under optimum conditions. In addition, harmful plants encountered in paddy rice cultivation were cultivated in pots with a water level 2 cm above the soil surface.
(§2) About three weeks after the start of the cultivation, the test plants were treated at the 2- to 3-leaf stage. The herbicides, formulated as powder or liquid concentrates, were, either alone or in the combinations according to the invention, sprayed in various dosages on to the green parts of the plants using an application rate of 600 l of water/ha (converted). For further cultivation of the plants, the pots were then again kept under optimum conditions in a greenhouse.
(§3) The visual scoring of the herbicidal effects was carried out in intervals up to 21 days after the treatment. Scoring was carried out in percent in comparison to the untreated control plants. 0%=no herbicidal activity, 100%=complete herbicidal activity=complete kill.
(§4) The percentages from the treatments with the herbicides alone (=individual application) and with the combinations according to the invention (=mixtures) were employed to calculate interactions using the method of Colby. When the observed efficacies of the mixtures exceed the formal sum of the values of the tests with individual applications, they also exceed the expected value according to Colby, which is calculated using the formula below (cf. S. R. Colby; in Weeds 15 (1967) pp. 20 to 22):
(§5) Here: • A, B=activity of components A and B in percent at a dosage of a and b g of ai/ha (=gramm of active substance per hectare), respectively. • E=expected value in % at a dosage of a+b g of ai/ha.
(§6) The combinations according to the invention of herbicides from group (A) with herbicides from group (B) were tested on a broad spectrum of important harmful plants (weed grasses, broad-leaved weeds/Cyperaceae) and useful plants: Triticum aestivum (TRZAS), Stellaria media (STEME), Lolium multiflorum (LOLMU), Veronica persica (VERPE), Alopecurus myosuroides (ALOMY), Matricaria inodora (MATIN), Brassica napus (BRSNW), Viola tricolor (VIOTR), Avena fatua (AVEFA), Amaranthus retroflexus (AMARE), Zea mays (ZEAMX), Pharbitis purpurea (PHBPU), Setaria viridis (SETVI), Fallopia (ex Polygonum) convolvulus (POLCO), Echinochloa crusgaffi (ECHCG), Abuthilon theophrasti (ABUTH), Cyperus esculentus (CYPES), Oryza sativa (ORYSA).
(§7) Of particular interest are the results shown in the tables (Tab.) below, where the following key is used: • (1) EPPO code (former Bayer code) for the treated plant (see above) • (2) Time of scoring: DAT (days after treatment) • (3) Component A tested (identifying number) • (4) Component B tested (identifying number) • (5) Dosage component A [g of ai/ha] • (6) Dosage component B [g of ai/ha] • (7) % activity found • (8) E value (calculated according to Colby; see above) • (9) Comments: “SYNERGY” =synergistic interaction (E value<% activity found); “SAFENING”=safener action on useful plant (E value>% activity found)

[2] = system: Fallopia (ex Polygonum) convolvulus (POLCO); assay: Post-emergence action, greenhouse pot test, visual scoring: POLCO; conditions: 21 DAT
Description: as §1, §2, §3, §4, §5, §6, §7

[3] = system: Stellaria media (STEME); assay: Post-emergence action, greenhouse pot test, visual scoring: STEME; conditions: 10 DAT
Description: as §1, §2, §3, §4, §5, §6, §7

[4] = system: Lolium multiflorum (LOLMU); assay: Post-emergence action, greenhouse pot test, visual scoring: LOLMU; conditions: for (7) % activity found: 21 DAT
Description: as §1, §2, §3, §4, §5, §6, §7

[5] = system: Oryza sativa (ORYSA); assay: Post-emergence action, greenhouse pot test, visual scoring: ORYSA
Description: as §1, §2, §3, §4, §5, §6, §7

[6] = system: Veronica persica (VERPE); assay: Post-emergence action, greenhouse pot test, visual scoring: VERPE
Description: as §1, §2, §3, §4, §5, §6, §7

[7] = system: Avena fatua (AVEFA); assay: Post-emergence action, greenhouse pot test, visual scoring: AVEFA; conditions: 21 DAT
Description: as §1, §2, §3, §4, §5, §6, §7

[8] = system: Abuthilon theophrasti (ABUTH); assay: Post-emergence action, greenhouse pot test, visual scoring: ABUTH
Description: as §1, §2, §3, §4, §5, §6, §7

[9] = system: Alopecurus myosuroides (ALOMY); assay: Post-emergence action, greenhouse pot test, visual scoring: ALOMY; conditions: 21 DAT
Description: as §1, §2, §3, §4, §5

[10] = system: Setaria viridis (SETVI); assay: Post-emergence action, greenhouse pot test, visual scoring: SETVI; conditions: 21 DAT
Description: as §1, §2, §3, §4, §5, §6, §7

[11] = system: Cyperus esculentus (CYPES); assay: Post-emergence action, greenhouse pot test, visual scoring: CYPES
Description: as §1, §2, §3, §4, §5

[12] = system: Matricaria inodora (MATIN); assay: Post-emergence action, greenhouse pot test, visual scoring: MATIN
Description: as §1, §2, §3, §4, §5

[13] = system: Triticum aestivum (TRZAS); assay: Post-emergence action, greenhouse pot test, visual scoring: TRZAS
Description: as §1, §2, §3, §4, §5, §6, §7

[14] = system: Viola tricolor (VIOTR); assay: Post-emergence action, greenhouse pot test, visual scoring: VIOTR; conditions: rate (5) 4
Description: as §1, §2, §3, §4, §5, §6, §7

[15] = system: Zea mays (ZEAMX); assay: Post-emergence action, greenhouse pot test, visual scoring: ZEAMX
Description: as §1, §2, §3, §4, §5, §6, §7

[16] = system: Echinochloa crusgaffi (ECHCG); assay: Post-emergence action, greenhouse pot test, visual scoring: ECHCG; conditions: for % activity found: 21 DAT
Description: as §1, §2, §3, §4, §5, §6, §7

[17] = system: Amaranthus retroflexus (AMARE); assay: Post-emergence action, greenhouse pot test, visual scoring: AMARE
Description: as §1, §2, §3, §4, §5

COc1nc(OC)nc(C(=O)c2cccc(F)c2N(C)S(=O)(=O)C(F)F)n1 [A-1]
70%: (7) % activity found ([2]; rate (5) 12) | % activity found ([3]; dose (5) 4) | % activity found ([3]; dose (5) 12) | (7) % activity found ([11]; 10 DAT, rate (5) 4) | (7) % activity found ([11]; 10 DAT, rate (5) 12) | % activity found ([12]; 10 DAT, A 12 g of ai/ha) | (7) % activity found ([16]; 10 DAT, rate (5) 12)
85%: % activity found ([8]; 21 DAT, dose (5) 4) | % activity found ([8]; 21 DAT, dose (5) 12) | % activity found ([16]; dose (5) 4)
80%: (7) % activity found ([11]; 21 DAT, rate (5) 4) | (7) % activity found ([11]; 21 DAT, rate (5) 12)
75%: (7) % activity found ([2]; rate (5) 4)
40%: (7) % activity found ([6]; 21 DAT, rate (5) 12) | (7) % activity found ([9]; rate (5) 4)
0%: (7) % activity found ([4]; rate (5) 4) | (7) % activity found ([5]; 21 DAT, rate (5) 4) | (7) % activity found ([10]; rate (5) 4) | (7) % activity found ([13]; 10 DAT, rate (5) 4) | (7) % activity found ([13]; 10 DAT, rate (5) 12) | (7) % activity found ([13]; 21 DAT, rate (5) 4) | (7) % activity found ([13]; 21 DAT, rate (5) 12) | (7) % activity found ([14]; 21 DAT) | (7) % activity found ([15]; 10 DAT, rate (5) 4) | (7) % activity found ([15]; 10 DAT, rate (5) 12) | (7) % activity found ([15]; 21 DAT, rate (5) 12)
60%: % activity found ([1]; 10 DAT, dose (5) 4) | % activity found ([1]; 21 DAT, dose (5) 4)
50%: (7) % activity found ([9]; rate (5) 12)
65%: (7) % activity found ([1]; 21 DAT, rate (5) 12)
20%: (7) % activity found ([10]; rate (5) 12) | (7) % activity found ([14]; 10 DAT)
30%: (7) % activity found ([6]; 21 DAT, rate (5) 4) | (7) % activity found ([7]; rate (5) 12)
10%: (7) % activity found ([4]; rate (5) 12) | (7) % activity found ([5]; 10 DAT, rate (5) 4) | (7) % activity found ([5]; 10 DAT, rate (5) 12) | (7) % activity found ([5]; 21 DAT, rate (5) 12) | (7) % activity found ([7]; rate (5) 4)

CCSC(=O)N1CCCCCC1 [B6-7, S-ethyl hexahydro-1H-azepine-1-carbothioate]
30%: % activity found ([12]; 21 DAT, dose (6) 300) | % activity found ([12]; 21 DAT, dose (6) 900)
0%: % activity found ([1]; 10 DAT, dose (6) 300) | % activity found ([1]; 10 DAT, dose (6) 900) | % activity found ([1]; 21 DAT, dose (6) 300) | % activity found ([1]; 21 DAT, dose (6) 900) | % activity found ([17]; 10 DAT, dose (6) 300) | % activity found ([17]; 10 DAT, dose (6) 900) | % activity found ([17]; 21 DAT, dose (6) 300) | % activity found ([17]; 21 DAT, dose (6) 900) | % activity found ([2]; dose (6) 300) | % activity found ([2]; dose (6) 900) | % activity found ([3]; dose (6) 300) | % activity found ([3]; dose (6) 900) | % activity found ([6]; 10 DAT, dose (6) 900) | % activity found ([6]; 21 DAT, dose (6) 300) | % activity found ([7]; dose (6) 300) | % activity found ([8]; 10 DAT, dose (6) 300) | % activity found ([8]; 10 DAT, dose (6) 900) | % activity found ([16]; dose (6) 300) | % activity found ([16]; dose (6) 900)
20%: % activity found ([4]; 10 DAT, dose (6) 900) | % activity found ([12]; 10 DAT, dose (6) 900)
